# Source: patent US11826333B2, “Bactericidal debridement compositions for surgical site infections and chronic wound healing” (DePuy Synthes Products, Inc., priority 2020, dated 2023)
# Tests used:
# [1] = system: P. aeruginosa, E. coli, K pneumoniae, Proteus mirabilis, Streptococcus pyogenes, B. subtilis, S. aureus, and the yeast C. albicans; conditions: literature, Rabin et al. 2015; many species of bacteria and across kingdom; cited from earlier work
# planktonic S. aureus = test: CDA effect on planktonic bacteria (visual MIC test and follow-up plating); assay type: cell-based
# From the text: As an additional test, several different CDA concentrations (800 ppm, 400 ppm, 200 ppm, 100 ppm, 50 ppm, 25 ppm, 12.5 ppm, and 6.25 ppm) were placed in vials including planktonic S. aureus. The vials can be seen in FIG. 3A. Two controls are on the right and unlabeled (bacteria/no fatty acid and no fatty acid/no bacteria, respectively). […] This test was qualitative and was based on whether there was observable bacteria in the test vials. In FIG. 3A, it can be seen that only the test vial containing 800 ppm CDA contains clear fluid, while the other tubes are all cloudy indicating active presence of bacteria.
# Thus, even at an MIC of 800 ppm, CDA was not shown to be bactericidal but rather bacteriostatic with respect to planktonic bacteria.
# biofilms = conditions: literature, Davies & Marques 2009; cited from earlier work
# [2] = system: mature biofilms of S. aureus (ATCC 25923); test: CDA dispersant effect on mature biofilms; assay type: cell-based; conditions: CDA ~0.05 ppm, 310 nM
# Method: (§1) In the following examples, unless otherwise noted, testing was conducted on mature biofilms of S. aureus (ATCC 25923) that were grown for 48 hours. An exemplary preparation of the biofilm is as follows: • Prepare an overnight bacterial inoculum of S. aureus at a concentration of 10^9 CFU/mL in 20 mL in commercial Tryptic Soy Broth (TSB) by incubating at 37° C. shaker at 250 rpm; • Take an OD600 reading of a diluted stock of overnight culture to determine stock concentration with the absorbance method; • Adjust the concentration of bacteria to 10^5 CFU/mL using 0.3% (w/v) TSB forcibly aspirating up and down to break up clumps of colonies with a serological pipette from the stock concentration; • Plate the following dilutions in triplicates on TSA-L plates to determine the initial stock concentration of cells: 10^2 CFU/mL; • Add 7 mL of inoculum into each 15 ml tube containing K-wire using a serological pipette, making sure to again forcibly aspirate up and down prior to addition; • Place the tubes on the revolver at 30° C.; • After 8 hours, unscrew the caps and transfer the caps with sutures to a new tube with 7 mL of 0.3% TSB and incubate in the shaker-incubator for an additional 44 hours to grow the biofilm at 40 RPM growing; • During this time, change the media 2 times per day by unscrewing the cap and transferring to a new tube with 7 mL TSB.
# MRSA = conditions: literature, Jennings et al. 2012; cited from earlier work
# [3] = system: S. aureus (ATCC 25923) biofilms grown for 48 hrs; test: CDA dose response on mature biofilms (Example 1); assay type: cell-based; conditions: CDA at 200 ppm or greater in 5% DMSO; 24 hours exposure; 48 h biofilm
# Method: as §1, with “TSB. […]” for “TSB.”
# [4] = system: S. aureus (ATC 25923) biofilm grown for 48 hours on K-wires; test: 1 hour CDA/cefazolin exposure of debrided or full biofilm on K-wires (Example 3); assay type: cell-based; conditions: debrided biofilm; for Avg. Log CFU, K-Wire Testing / Avg. Log CFU, Well Testing: 21° C.; for Reduction (log CFU), K-Wire Testing / Reduction (log CFU), Well Testing: vs debrided biofilm control
# Method: The goal of this study was to determine whether the combination of CDA and Cefazolin can act quickly on a debrided contaminated wound site with an adjuvant killing effect of CDA and a therapeutic drug concentration. The biofilm was grown at 30° C. and the same 0.3% (w/v) media used in previous studies was used in this study. The biofilm was grown for 48 hours, then underwent a mechanical “debridement” process. This debridement was done to simulate the debridement of an infected wound site. After the physical removal of visual biofilm, the K-wires were exposed to 400 ppm CDA, 10 ppm cefazolin, or a combination of both, for one hour (in contrast to the previous studies where exposure was for 24 hrs). Separately, a test was conducted on an untreated biofilm (i.e., not debrided) using a higher concentration of CDA, approximately 800 ppm. This concentration of CDA was determined to be the MIC value for ATC 25923 planktonic cells as noted above in the previous example.
# The contents of the wells and bacteria on the K-wires were diluted and plated to determine CFU/mL. Briefly, the K-wires were secured to tube caps and placed in tubes incubated with an initial inoculum concentration (10^5 CFU/mL) and grown for 24-48 hours. Media was changed roughly every 8 hours. After growth, the biofilms were exposed to a combination of CDA and cefazolin for 60 minutes.
# After exposure time was completed, both the well samples and the debrided K-wires were treated, and the remaining bacteria cells were plated and counted. For the media in the wells, samples were centrifuged for 10 minutes at 3000 rpm and the supernatant was removed. The cells were resuspended in 10 mL 1×PBS buffer. This washing step was repeated for a second time and the cells resuspended again in a final volume of 1.5 mL neutralizing buffer, diluted and plated on Tryptic Soy Agar with Lectin (TSA-L) agar plates. For the K-wires, the caps securing the K-wires in the tubes were removed and transferred to tubes with 10 mL 1×PBS and the tubes were inverted. The cap with the K-wires were transferred again to another tube with PBS and the step was repeated. After washing the K-wires 2×, they were transferred to tubes with neutralizing buffer and vortexed followed by ultra-sonication for 10 minutes. The cells were then diluted and plated on TAS-L agar plates.
# Prepare an overnight bacterial inoculum of S. aureus at a concentration of 10^9 CFU/mL in 20 mL in commercial TSB by incubating at 37° C. shaker at 250 rpm.
# Adjust the concentration of bacteria to 10^5 CFU/mL using 0.3% (w/v) TSB making sure to forcibly aspirate up and down to break up clumps of colonies with a serological pipette from the stock concentration.
# Add 7 mL of inoculum into each 15 ml tube containing K-wire using a serological pipette, making sure to again forcibly aspirate up and down prior to addition.
# After 8 hours, unscrew the caps and transfer the caps with sutures to a new tube with 7 mL of 0.3% TSB and incubate in the shaker-incubator for an additional 44 hours to grow the biofilm at 40 RPM growing.
# During this time, change the media 2× per day by unscrewing the cap and transferring to a new tube with 7 mL TSB. After 48 hours of growth, proceed with debridement of the biofilm and exposure.
# Transfer the K-wires in new tubes containing 10 mL of 1×PBS, invert it two times and repeat the same step with one more PBS wash by inverting 2 times for a total of 2 washes.
# Transfer caps with debrided biofilm to a new tube containing 10 mL of 0.1% TSB with DMSO only.
# Transfer caps with debrided biofilm to a new tube containing 10 mL of 0.1% TSB+400 ppm concentration of CDA+5% DMSO.
# Transfer caps with debrided biofilm to a new tube containing 10 mL of 0.1% TSB+10 ppm concentration of cefazolin.
# Transfer caps with debrided biofilm to a new tube containing 10 mL of 0.1% TSB+10 ppm concentration of cefazolin+400 ppm CDA+5% DMSO. […]
# [5] = system: mature biofilms of S. aureus (ATCC 25923) grown for 48 hours on K-wires; test: CDA + antibiotics on K-wires having mature biofilms (Example 2); assay type: cell-based; conditions: 400 ppm CDA adjuvant in combination with the named antibiotic; 48 h biofilm
# Method: as §1
# New K-wires were roughened with #600 sandpaper (˜10× along the length) followed by rinsing with deionized water. The rinsed K-wires were then completely immersed in a 10% citric acid (w/v) bath at ˜49° C. for 20 minutes to passivate the surface of the stainless steel to prevent subsequent corrosion. After removal from the bath, the K-wires were then rinsed with deionized water. The K-wires were then washed and sterilized by autoclaving.
# K-wires were secured to tube caps and placed in tubes incubated with an initial inoculum concentration (10^5 CFU/mL) and grown for 24-48 hours. Media was changed roughly every 8 hours. After growth, the inoculated K-wires were ready for testing.
# After exposure time is completed, both the well samples and the debrided K-wires are treated, and remaining bacteria cells are plated and counted. For the media in the wells, samples are centrifuged for 10 minutes at 3000 rpm and the supernatant is removed. The cells are resuspended in 10 mL 1×PBS buffer. This washing step is repeated for a 2nd time and the cells resuspended again in a final volume of 1.5 mL neutralizing buffer, diluted and plated on Tryptic Soy Agar with Lectin (TSA-L) agar plates. For the K-wires, the caps securing the K-wires in the tubes are removed and transferred to tubes with 10 mL 1×PBS and the tubes are inverted. The caps with the K-wires are transferred again to another tube with PBS and the step repeated. After washing the K-wires 2 times, they are transferred to tubes with neutralizing buffer and vortexed followed by ultra-sonication for 10 minutes. The cells are then diluted and plated on TSA-L agar plates.
# Following growth, biofilms were washed and treated with the fatty acid and/or antimicrobials to determine dose-response and adjuvant effects. After this time, the wells of the samples were diluted and plated to determine dispersion levels compared to controls. The K-wires were washed, sonicated to remove any residual cells, and the samples were plated to determine CFU/mL.
# Staphylococcus aureus = conditions: literature, Stenz et al.; by inhibiting bacterial adhesion; cited from earlier work
# Xanthomonas campestris = conditions: literature, Dow et al. 2003; cited from earlier work
# [6] = system: mature biofilms of S. aureus (ATCC 25923); test: Systemic gentamicin testing on mature biofilms; assay type: cell-based; conditions: approximately 10 ppm (10 mcg/ml) gentamicin; data not shown
# Method: as §1, with “TSB. […]” for “TSB.”
compound,measurement,setting,value
"CCCCCCC/C=C\C(=O)O [CDA, cis-2-decenoic acid]",effect on established biofilms,[1],disperse established biofilms
same,growth in the tube,"planktonic S. aureus; 400 ppm CDA, planktonic S. aureus",visible growth
same,bacteriostatic or bactericidal,"planktonic S. aureus; 800 ppm CDA, 10 μL plated on TSA-L agar after 24 hours incubation","bacteriostatic, not bactericidal"
same,MIC,"planktonic S. aureus; Staphylococcus aureus, planktonic cells, qualitative, clear vs cloudy vials, read-out: minimum inhibitory concentration (MIC)",800 µg/mL
same,lowest concentration able to disperse biofilms,biofilms,about 2.5 nM
same,dispersion of biofilm,[2],no observed dispersion
same,concentration that inhibited biofilm formation,MRSA,125 ppm
same,concentration that inhibited the growth of MRSA,MRSA,≥ 500 ppm
same,log reduction in CFU,[3],greater than 4 log
same,"Avg. Log CFU, K-Wire Testing",[4]; 400 ppm CDA + 5% DMSO,7.8 Log CFU
same,"Avg. Log CFU, Well Testing",[4]; 400 ppm CDA + 5% DMSO,5.6 Log CFU
same,"Reduction (log CFU), K-Wire Testing",[4]; 400 ppm CDA + 5% DMSO,1.6
same,"Reduction (log CFU), Well Testing",[4]; 400 ppm CDA + 5% DMSO,0.6
"Cc1nnc(SCC2=C(C(=O)O)N3C(=O)[C@@H](NC(=O)Cn4cnnn4)[C@H]3SC2)s1 [Cef, cefazolin]",log reduction of bacteria in the wells,[5],7.8 log
same,log reduction of bacteria on the medical device (K-wires),[5],5.9 log
same,"Avg. Log CFU, K-Wire Testing",[4]; 10 ppm cefazolin,8.5 Log CFU
same,"Avg. Log CFU, Well Testing",[4]; 10 ppm cefazolin,5.4 Log CFU
same,"Reduction (log CFU), K-Wire Testing",[4]; 10 ppm cefazolin,0.9
same,"Reduction (log CFU), Well Testing",[4]; 10 ppm cefazolin,0.8
"CCCCCCCC/C=C\CCCCCCCC(=O)O [Oleic acid, cis-9-octadecanoic acid]",effect on biofilm formation,Staphylococcus aureus,repress biofilm formation
CC(C)CCCCCCC/C=C\C(=O)O [cis-11-methyl-2-dodecenoic acid],effect on cell flocs,Xanthomonas campestris,disaggregate cell flocs
CN[C@H](CC(C)C)C(=O)N[C@H]1C(=O)N[C@@H](CC(N)=O)C(=O)N[C@H]2C(=O)N[C@H]3C(=O)N[C@H](C(=O)N[C@H](C(=O)O)c4cc(O)cc(O)c4-c4cc3ccc4O)[C@H](O)c3ccc(c(Cl)c3)Oc3cc2cc(c3O[C@@H]2O[C@H](CO)[C@@H](O)[C@H](O)[C@H]2O[C@H]2C[C@](C)(N)[C@H](O)[C@H](C)O2)Oc2ccc(cc2Cl)[C@H]1O [vancomycin],log reduction of bacteria in the wells,[5],5.3 log
same,log reduction of bacteria on the medical device (K-wires),[5],4.7 log
gentamicin,response of mature biofilms to gentamicin doses,[6],resistant
same,log reduction of bacteria in the wells,[5],6.3 log
same,log reduction of bacteria on the medical device (K-wires),[5],4.9 log
